Measured values from patent publication US5665719A, “Benzoxazinone and benzopyrimidinone piperidinyl tocolytic oxytocin receptor antagonists” (Merck & Co., Inc., priority 1995, dated 1997).
Where two headings read alike, the source gives them in different places.

Biological target: T1, uterine OT receptors (Rattus norvegicus, UniProt P70536)
T1 construct: from tissue; host or cells: uterus of diethylstilbestrol dipropionate (DES)-treated rats, crude membrane preparation
T1 sequence (P70536 1-388): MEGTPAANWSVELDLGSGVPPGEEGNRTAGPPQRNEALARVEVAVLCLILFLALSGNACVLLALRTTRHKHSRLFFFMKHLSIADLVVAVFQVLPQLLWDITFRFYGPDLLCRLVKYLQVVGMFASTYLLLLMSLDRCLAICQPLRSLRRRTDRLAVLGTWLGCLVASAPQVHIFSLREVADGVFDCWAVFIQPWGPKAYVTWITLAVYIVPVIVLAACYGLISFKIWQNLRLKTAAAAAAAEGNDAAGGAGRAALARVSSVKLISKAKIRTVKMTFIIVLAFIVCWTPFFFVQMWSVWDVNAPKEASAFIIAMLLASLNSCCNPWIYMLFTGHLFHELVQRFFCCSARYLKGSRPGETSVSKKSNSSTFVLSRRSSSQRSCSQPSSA
Experiment: [3H]Oxytocin (OT) radioligand binding to uterine OT receptors, crude uterine membranes from DES-treated rats
Details: for inhibition at 1 µM: inhibition at 1,000 nM, read-out: Result For [3H]OT (% inhib. at 1,000 nM); for inhibition at 1 µM / inhibition at 10 µM: 1 nM [3H]OT, pH 7.4; for inhibition at 10 µM: inhibition at 10,000 nM, read-out: Result For [3H]OT (% inhib. at 10,000 nM)
Experimental: Competition studies were conducted at equilibrium (60 minutes; 22° C.) using 1 nM[^3 H]OT in the following assay buffer: 50 mM Tris-HCl, 5 mM MgCl2, and 0.1% BSA, pH 7.4. Nonspecific binding (10% of the total binding) was determined using 1 μM unlabeled OT and the binding reaction was terminated by filtration through glass fiber filters using a cell harvester (model 7019, Skatron, Inc., Sterling, Va.).
IC50 values were determined for the [^3 H]OT and [^3 H]AVP binding assays by linear regression of the relation log concentration of compound vs. percent inhibition of specific binding. Data is either reported as a given percentage of inhibition at a specified concentration,or if an IC50 was calculated, as a nanomolar concentration.

With Cc1cc(OC2CCN(C(=O)OC(C)(C)C)CC2)ccc1C(=O)N1CCC(N2C(=O)OCc3ccccc32)CC1 [Example 43, 1-(1-(4-(N-t-Butoxycarbonyl-4-piperidinyloxy)-2-methylbenzoyl)piperidin-4-yl)-1,2-dihydro-4(H)-3,1-benzoxazin-2-one] the inhibition at 1 µM (60 minutes, 22° C.) was 59%.
In the case of COc1ccc(C(=O)N2CCC(N3C(=O)Cc4ccccc43)CC2)c(OC)c1 [Example 55, 1-(1-(2,4-dimethoxybenzoyl)-4-piperidyl)indol-2-one], the IC50 is reported as 6200 nM.
In the case of COc1cc(OC2CCN(C(=O)CCCN)CC2)ccc1C(=O)N1CCC(N2C(=O)OCc3ccccc32)CC1 [Example 30, 1-(1-(4-(1-(4-Aminobutanoyl)-4-piperidinyloxy)-2-methoxybenzoyl)piperidin-4-yl)-1,2-dihydro-4(H)-3,1-benzoxazin-2-one], the IC50 is reported as 69 nM.
COc1ccc(C(=O)N2CCC(N3C(=O)OCc4sccc43)CC2)c(OC)c1 [Example 63, 1-(1-(2,4-dimethoxybenzoyl)piperidin-4-yl)-1,2-dihydro-4 (H)-3,1-thienoxazin-2-one] gave an IC50 (competition vs 1 nM [3H]OT, 60 minutes, 22° C., pH 7.4, rat uterus membranes, read-out: Result For [3H]OT (IC50)) of 590 nM.
For COc1cc(OC)c(C(=O)N2CCC(N3C(=O)OCc4ccccc43)CC2)c(OC)c1 [Example 1], the inhibition at 10 µM (60 minutes, 22° C.) was 61%.
COc1cc(OC2CCN(C(=O)Cc3cnc[nH]3)CC2)ccc1C(=O)N1CCC(N2C(=O)OCc3ccccc32)CC1 [Example 45, 1-(1-(4-(1-(4(5)-Imidazolylacetyl)-4-piperidinyloxy)-2-methoxybenzoyl)piperidin-4-yl)-1,2-dihydro-4(H)-3,1-benzoxazin-2-one] gave an IC50 of 44 nM.
In the case of O=C(c1ccc(OCC2CCCNC2)cc1)N1CCC(N2C(=O)OCc3ccccc32)CC1 (centres unmarked) [Example 32, 1-(1-(4-(3-Piperidinylmethoxy)benzoyl)piperidin-4-yl)-1,2-dihydro-4(H)-3,1-benzoxazin-2-one], the inhibition at 10 µM (60 minutes, 22° C.) is reported as 78%.
With CC(C)(C)OC(=O)N1CCC(C(=O)NCCCOc2ccc(C(=O)N3CCC(N4C(=O)OCc5ccccc54)CC3)c(O)c2)CC1 [Example 49, 1-(1-(4-(3-(N-t-Butyloxycarbonylpiperidin-4-ylcarbonylamino)propoxy)-2-hydroxybenzoyl)piperidin-4-yl)-1,2-dihydro-4(H)-3,1-benzoxazin-2-one] the inhibition at 1 µM (60 minutes, 22° C.) was 72%.
With COc1cc(OC2CCN(S(=O)(=O)CCCN(C)C3CC3)CC2)ccc1C(=O)N1CCC(N2C(=O)OCc3ccccc32)CC1 [Example 66, 1-(1-(4-(1-((3-N-Cyclopropyl-N-methylamino)propylsulfonyl)piperidin-4-yloxy)-2-methoxybenzoyl)piperidin-4-yl)-1,2-dihydro-4(H)-3,1-benzoxazin-2-one] the IC50 was 25 nM.
Compound COc1ccc(C(=O)N2CCC(N3C(=O)OCc4ccccc43)CC2C#N)c(OC)c1 (centres unmarked) [Example 60, 1-(1-(2,4-dimethoxybenzoyl)-2-cyanopiperidin-4-yl)-1,2-dihydro-4(H)-3,1-benzoxazin-2-one] has an inhibition at 10 µM (60 minutes, 22° C.) of 70%.
Compound CCOC(=O)CN1CCC(Oc2ccc(C(=O)N3CCC(N4C(=O)OCc5ccccc54)CC3)c(OC)c2)CC1 [Example 48, 1-(1-(4-(1-(Ethoxycarbonylmethyl)-4-piperidinyloxy)-2-methoxybenzoyl)piperidin-4-yl)-1,2-dihydro-4(H)-3,1-benzoxazin-2-one] has an IC50 of 340 nM.
O=C(/C=C/c1ccccc1)N1CCC(N2C(=O)OCc3ccccc32)CC1 [Example 7, 1-(1-(Cinnamoyl)piperidin-4-yl)-1,2-dihydro-4(H)-3,1-benzoxazin-2-one] was tested, and the IC50 was 6200 nM.
O=C(Nc1ccc(CC(=O)N2CCC(N3C(=O)OCc4ccccc43)CC2)cc1)c1ccc2[nH]cnc2c1 [Example 9, 1-(1-(4-((5-Benzimidazolylcarbonyl)amino)phenylacetyl)piperidin-4-yl)-1,2-dihydro-4(H)-3,1-benzoxazin-2-one] was tested, and the IC50 was 280 nM.
COc1cc(OCCCN2C(=O)CN(C)C2=O)ccc1C(=O)N1CCC(N2C(=O)OCc3ccccc32)CC1 [Example 22, 1-(1-(4-(3-(1-Methylimidazoline-2,4-dione-3-yl)propoxy)-2-methoxybenzoyl)piperidin-4-yl)-1,2-dihydro-4(H)-3,1-benzoxazin-2-one] was tested, and the IC50 was 260 nM.
In the case of COc1ccc(C(=O)N2CCC(N3C(=O)OCc4ccccc43)CC2)c([N+](=O)[O-])c1 [Example 44, 1-(1-(4-Methoxy-2-nitrobenzoyl)piperidin-4-yl)-1,2-dihydro-4(H)-3,1-benzoxazin-2-one], the IC50 is reported as 5000 nM.
With COc1ccc(C(=O)N2CC(N3C(=O)OCc4ccccc43)C2)c(OC)c1 [Example 57, 1-(1-(2,4-Dimethoxybenzoyl)azetidin-3-yl)-1,2-dihydro-4(H)-3,1-benzoxazin-2-one] the inhibition at 10 µM (60 minutes, 22° C.) was 54%.
In the case of COc1cc(OC2CCN(C(=O)OC(C)(C)C)CC2)ccc1C(=O)N1CCC(N2C(=O)COc3ccccc32)CC1 [Example 41, 4-(1-(4-(4-(1-t-Butyloxycarbonyl)piperidinyloxy)-2-methoxybenzoyl)piperidin-4-yl)-(2H)-1,4-benzoxazin-3(4H)-one], the inhibition at 1 µM (60 minutes, 22° C.) is reported as 42%.
CC(=O)N(C)CCCOc1ccc(C(=O)N2CCC(N3C(=O)OCc4ccccc43)CC2)cc1 [Example 24, 1-(1-(4-(3-(N-Methyl(acetylamino))propoxy)benzoyl)piperidin-4-yl)-1,2-dihydro-4(H)-3,1-benzoxazin-2-one] gave an IC50 of 550 nM.
With O=C(c1ccccn1)N1CCC(N2C(=O)OCc3ccccc32)CC1 [Example 3] the inhibition at 10 µM (60 minutes, 22° C.) was 40%.
CCN(CC)CCS(=O)(=O)N1CCC(Oc2ccc(C(=O)N3CCC(N4C(=O)OCc5ccccc54)CC3)c(OC)c2)CC1 [Example 46, 1-(1-(4-(1-(Diethylaminoethylsulfonyl)-4-piperidinyloxy)-2-methoxybenzoyl)piperidin-4-yl)-1,2-dihydro-4(H)-3,1-benzoxazin-2-one] showed an IC50 of 23 nM.
In the case of COc1cc(OCCCN)ccc1C(=O)N1CCC(N2C(=O)OCc3ccccc32)CC1 [Example 12, 1-(1-(4-(3-Aminopropoxy)-2-methoxybenzoyl)piperidin-4-yl)-1,2-dihydro-4(H)-3,1-benzoxazin-2-one], the IC50 is reported as 410 nM.
With COc1cc(OCCCNS(C)(=O)=O)ccc1C(=O)N1CCC(N2C(=O)OCc3ccccc32)CC1 [Example 17, 1-(1-(4-(3-((Methylsulfonyl)amino)propoxy)-2-methoxybenzoyl)piperidin-4-yl)-1,2-dihydro-4(H)-3,1-benzoxazin-2-one] the IC50 was 81 nM.
COc1cc(C(=O)N2CCN(C(=O)OC(C)(C)C)CC2)ccc1C(=O)N1CCC(N2C(=O)OCc3ccccc32)CC1 [Example 39, 1-(1-(4-(4-(t-Butyloxycarbonyl)piperazin-1-ylcarbonyl)-2-methoxybenzoyl)piperidin-4-yl)-1,2-dihydro-4(H)-3,1-benzoxazin-2-one] was tested, and the inhibition at 1 µM (60 minutes, 22° C.) was 46%.
With COc1ccc(C(=O)N2CCC(N3C(=O)N(C)Cc4ccccc43)CC2)c(OC)c1 [Example 36, 1-(2,4-Dimethoxybenzoylpiperidin-4-yl)-3,4-dihydro-3-methylquinazolin-2(1H)-one] the inhibition at 10 µM (60 minutes, 22° C.) was 48%.
With O=C(c1ccc(OC2CCNCC2)cc1Cl)N1CCC(N2C(=O)OCc3ccccc32)CC1 [Example 52, 1-(1-(4-(4-Piperidinyloxy)-2-chlorobenzoyl)piperidin-4-yl)-1,2-dihydro-4(H)-3,1-benzoxazin-2-one] the IC50 was 4300 nM.
Compound O=C(c1cc2ccccc2[nH]1)N1CCC(N2C(=O)OCc3ccccc32)CC1 [Example 4] has an inhibition at 10 µM (60 minutes, 22° C.) of 78%.
Work on COc1ccc(C(=O)N2CCC(N3C(=O)OC(C)(C)c4ccccc43)CC2)c(OC)c1 [Example 61, 1-(1-(2,4-dimethoxybenzoyl)piperidin-4-yl)-4,4-dimethyl-1,2-dihydro-4(H)-3,1-benzoxazin-2-one] yielded an inhibition at 10 µM (60 minutes, 22° C.) of 64%.
Compound COc1cc(OCCCNC(=O)C2CCNCC2)c(Cl)cc1C(=O)N1CCC(N2C(=O)OCc3ccccc32)CC1 [Example 15, 1-(1-(4-(3-(4-Piperidinylcarbonylamino)propoxy)-6-methoxy-3-chlorobenzoyl)piperidin-4-yl)-1,2-dihydro-4(H)-3,1-benzoxazin-2-one] has an IC50 of 56 nM.
Work on COc1cc(OCCCNC(=O)C2CCNCC2)ccc1C(=O)N1CCC(N2C(=O)OCc3ccccc32)CC1 [Example 14, 1-(1-(4-(3-(4-Piperidinylcarbonylamino)propoxy)-2-methoxybenzoyl)piperidin-4-yl)-1,2-dihydro-4(H)-3,1-benzoxazin-2-one] yielded an IC50 of 74 nM.
